Several values for one entry are separate records, joined by “and”; a condition that tells them apart may be missing. Identical values can stand only once. Inconclusive results and toxic doses are left out.
System: P388 leukemia ip, CD2F1 mice, survival T/C
Experiment: NCI In Vivo Anticancer Drug Screen. Data for tumor model P388 Leukemia (intraperitoneal) in CD2F1 (CDF1) mice
Conditions: endpoint: median survival time, higher = longer survival
Summary of the method: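 Mice carrying the transplanted tumor received test compound or vehicle. Survival was recorded in each group, and the value is the treated-group measurement divided by that of the vehicle-treated control group.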

[1] = dose: 50.0 mg/kg/injection, schedule: Q01DX005 (ip), vehicle: saline with Tween-80
[2] = dose: 100.0 mg/kg/injection, schedule: Q01DX005 (ip), vehicle: saline with Tween-80
[3] = dose: 200.0 mg/kg/injection, schedule: Q01DX005 (ip), vehicle: saline with Tween-80
[4] = dose: 50.0 mg/kg/injection, schedule: Q01DX009 (ip), vehicle: Klucel (hydroxypropylcellulose) (HPC)
[5] = dose: 100.0 mg/kg/injection, schedule: Q01DX009 (ip), vehicle: Klucel (hydroxypropylcellulose) (HPC)
[6] = dose: 200.0 mg/kg/injection, schedule: Q01DX009 (ip), vehicle: Klucel (hydroxypropylcellulose) (HPC)
[7] = dose: 3.12 mg/kg/injection, schedule: Q01DX009 (ip), vehicle: saline
[8] = dose: 6.25 mg/kg/injection, schedule: Q01DX009 (ip), vehicle: saline
[9] = dose: 100.0 mg/kg/injection, schedule: Q01DX001 (ip), vehicle: saline with Tween-80
[10] = dose: 200.0 mg/kg/injection, schedule: Q01DX001 (ip), vehicle: saline with Tween-80
[11] = dose: 400.0 mg/kg/injection, schedule: Q01DX001 (ip), vehicle: saline with Tween-80
[12] = dose: 100.0 mg/kg/injection, schedule: Q04DX003 (ip), vehicle: saline with Tween-80
[13] = dose: 50.0 mg/kg/injection, schedule: Q01DX005 (ip), vehicle: Klucel (hydroxypropylcellulose) (HPC)
[14] = dose: 100.0 mg/kg/injection, schedule: Q01DX005 (ip), vehicle: Klucel (hydroxypropylcellulose) (HPC)
[15] = dose: 200.0 mg/kg/injection, schedule: Q01DX005 (ip), vehicle: Klucel (hydroxypropylcellulose) (HPC)
[16] = dose: 60.0 mg/kg/injection, schedule: Q01DX005 (ip), vehicle: Klucel (hydroxypropylcellulose) (HPC)
[17] = dose: 120.0 mg/kg/injection, schedule: Q01DX005 (ip), vehicle: Klucel (hydroxypropylcellulose) (HPC)
[18] = dose: 240.0 mg/kg/injection, schedule: Q01DX005 (ip), vehicle: Klucel (hydroxypropylcellulose) (HPC)
[19] = dose: 400.0 mg/kg/injection, schedule: Q01DX009 (ip), vehicle: Klucel (hydroxypropylcellulose) (HPC)
[20] = dose: 12.5 mg/kg/injection, schedule: Q01DX009 (ip), vehicle: saline

CN(C)C1=CC=C2C(=O)c3ccccc3C2(c2ccccc2)C=C1 (configuration not stated)
T/C (dose: 100.0 mg/kg/injection, schedule: Q04DX002 (ip), vehicle: saline with Tween-80): 89 % of control
T/C (dose: 200.0 mg/kg/injection, schedule: Q04DX002 (ip), vehicle: saline with Tween-80): 88 % of control
T/C (dose: 400.0 mg/kg/injection, schedule: Q04DX002 (ip), vehicle: saline with Tween-80): 89 % of control

CC1(Cc2c(N)[nH]c(=S)[nH]c2=O)OCCO1
T/C [1]: 105 % of control
T/C [2]: 110 % of control
T/C [3]: 110 % of control

Cc1ccc(S(=O)(=O)N(CCCc2ccccc2)S(=O)(=O)c2ccc(C)cc2)cc1
T/C [4]: 96 % of control
T/C [5]: 97 % of control
T/C [6]: 100 % of control

BrP(Cc1ccccc1-c1ccccc1CP(Br)(c1ccccc1)(c1ccccc1)c1ccccc1)(c1ccccc1)(c1ccccc1)c1ccccc1
T/C (dose: 1.56 mg/kg/injection, schedule: Q01DX009 (ip), vehicle: saline): 103 % of control
T/C [7]: 102 % of control
T/C [8]: 100 % of control and 103 % of control

S=c1[nH]nc2nc3c4ccccc4c4ncccc4c3nn12
T/C [9]: 92 % of control
T/C [10]: 91 % of control
T/C [11]: 100 % of control

CCOC(=O)C(Cc1ccc(O)cc1)NC(=O)C(CCCCN)N(C(=O)OCc1ccccc1)C(=O)OCc1ccccc1 (configuration not stated)
T/C [1]: 96 % of control
T/C [2]: 94 % of control
T/C [3]: 92 % of control

CN=C1NC(=O)C(C(C)c2c[nH]c3ccccc23)S1 (configuration not stated)
T/C [4]: 111 % of control
T/C [5]: 111 % of control
T/C [6]: 113 % of control

[C-]#[N+]C1CCCCC1.[C-]#[N+]C1CCCCC1.[Ni].[S-]c1ccccc1.[S-]c1ccccc1
T/C (dose: 25.0 mg/kg/injection, schedule: Q04DX003 (ip), vehicle: saline with Tween-80): 89 % of control
T/C (dose: 50.0 mg/kg/injection, schedule: Q04DX003 (ip), vehicle: saline with Tween-80): 91 % of control
T/C [12]: 89 % of control and 93 % of control

O=C(Nc1ccc(Cc2ccc(NC(=O)C(c3ccccc3)c3ccccc3)cc2)cc1)C(c1ccccc1)c1ccccc1
T/C [1]: 86 % of control
T/C [2]: 95 % of control
T/C [3]: 92 % of control

O=C1C=CC(=C2SCCS2)C(O)=C1
T/C [4]: 100 % of control
T/C [5]: 93 % of control
T/C [6]: 97 % of control

O=S(=O)(O)CN1CCN(CCN(CS(=O)(=O)O)CS(=O)(=O)O)CC1
T/C [13]: 100 % of control
T/C [14]: 100 % of control
T/C [15]: 96 % of control

CN(c1ccccc1)c1cc2c(cc1[N+](=O)[O-])no[n+]2[O-]
T/C (dose: 7.5 mg/kg/injection, schedule: Q01DX009 (ip), vehicle: saline): 100 % of control and 86 % of control and 97 % of control
T/C (dose: 15.0 mg/kg/injection, schedule: Q01DX009 (ip), vehicle: saline): 107 % of control and 94 % of control
T/C (dose: 30.0 mg/kg/injection, schedule: Q01DX009 (ip), vehicle: saline): 105 % of control and 95 % of control
T/C (dose: 60.0 mg/kg/injection, schedule: Q01DX009 (ip), vehicle: saline): 100 % of control and 101 % of control and 92 % of control

CC(/C=C/C1OC(=O)C=CC1C)=C\C(C)C/C=C/C(C)=C/C(C)C(=O)C(C)C(O)C(C)C/C(C)=C/C(=O)O (configuration not stated)
T/C (dose: 2.5 micrograms/kg/injection, schedule: Q01DX005 (ip), vehicle: saline + alcohol): 101 % of control
T/C (dose: 5.0 micrograms/kg/injection, schedule: Q01DX005 (ip), vehicle: saline + alcohol): 99 % of control
T/C (dose: 10.0 micrograms/kg/injection, schedule: Q01DX005 (ip), vehicle: saline + alcohol): 106 % of control
T/C (dose: 20.0 micrograms/kg/injection, schedule: Q01DX005 (ip), vehicle: saline + alcohol): 100 % of control
T/C (dose: 100.0 micrograms/kg/injection, schedule: Q01DX005 (ip), vehicle: alcohol): 150 % of control
T/C (dose: 200.0 micrograms/kg/injection, schedule: Q01DX005 (ip), vehicle: alcohol): 159 % of control

CN(N=O)c1ccc(N=Nc2ccccc2)cc1
T/C [16]: 98 % of control
T/C [17]: 95 % of control
T/C [18]: 86 % of control

OCCN1CN(c2ccccc2)C(=S)N(c2ccccc2)C1
T/C (dose: 50.0 mg/kg/injection, schedule: Q01DX009 (ip), vehicle: saline with Tween-80): 97 % of control
T/C (dose: 100.0 mg/kg/injection, schedule: Q01DX009 (ip), vehicle: saline with Tween-80): 100 % of control
T/C (dose: 200.0 mg/kg/injection, schedule: Q01DX009 (ip), vehicle: saline with Tween-80): 93 % of control

Cc1nn2c(nnn2CCO)c1-c1ccccc1
T/C [16]: 105 % of control
T/C [17]: 91 % of control
T/C [18]: 91 % of control

O=C(CCN1CCCCC1)Nc1ccc(F)cc1F
T/C [1]: 97 % of control
T/C [2]: 99 % of control
T/C [3]: 100 % of control

[Cl][Eu]([Cl])[Cl]
T/C (dose: 50.0 mg/kg/injection, schedule: Q01DX009 (ip), vehicle: saline): 89 % of control

CCCCCCCCC(=O)c1c(OC)oc(/C=N/NC(N)=S)cc1=O
T/C [5]: 86 % of control
T/C [6]: 91 % of control
T/C [19]: 98 % of control

CCOC(=O)C1=C(C)NC(C)=C(C(=O)OCC)C1(C)C
T/C [1]: 104 % of control
T/C [2]: 100 % of control
T/C [3]: 100 % of control

CCCOC(=O)/C=C/C(=O)N1CC(C)N(C(=O)/C=C/C(=O)OCCC)CC1C (configuration not stated)
T/C [13]: 109 % of control
T/C [14]: 98 % of control
T/C [15]: 98 % of control

COC(=O)c1c(C)cc(OC)c(C/C=C(\C)CCCc2coc(C=C(C)C)c2)c1OC
T/C (dose: 4.5 mg/kg/injection, schedule: Q01DX005 (ip), vehicle: Klucel (hydroxypropylcellulose) (HPC)): 106 % of control
T/C (dose: 9.0 mg/kg/injection, schedule: Q01DX005 (ip), vehicle: Klucel (hydroxypropylcellulose) (HPC)): 100 % of control
T/C (dose: 18.0 mg/kg/injection, schedule: Q01DX005 (ip), vehicle: Klucel (hydroxypropylcellulose) (HPC)): 99 % of control
T/C (dose: 36.0 mg/kg/injection, schedule: Q01DX005 (ip), vehicle: Klucel (hydroxypropylcellulose) (HPC)): 98 % of control
T/C [13]: 97 % of control
T/C (dose: 72.0 mg/kg/injection, schedule: Q01DX005 (ip), vehicle: Klucel (hydroxypropylcellulose) (HPC)): 104 % of control
T/C [14]: 98 % of control
T/C [15]: 99 % of control

c1ccc(CNc2nnc3nc(-c4ccccc4)c(-c4ccccc4)nn23)cc1
T/C [1]: 117 % of control
T/C [2]: 114 % of control
T/C [3]: 105 % of control

O=C(O)Cn1/c(=N\N=C\c2ccccc2)sc2ccccc21
T/C [9]: 101 % of control
T/C [10]: 91 % of control
T/C [11]: 93 % of control

NC(=S)N/N=C\c1nccc2ccccc12
T/C [8]: 90 % of control
T/C [20]: 99 % of control
T/C (dose: 50.0 mg/kg/injection, schedule: Q01DX009 (ip), vehicle: suspension in saline): 94 % of control

O=C(Nc1nnc(-c2ccccc2)s1)c1cc(=O)c2cc(Cl)ccc2o1
T/C [13]: 114 % of control
T/C [14]: 98 % of control
T/C [15]: 106 % of control

NC(=S)N/N=C\c1[nH]c(=O)nc2ccccc12
T/C [5]: 100 % of control
T/C [6]: 100 % of control
T/C [19]: 100 % of control

C=C1C(C)C2C(Cc3ccccc3)NC(=O)C23C(OC(C)=O)/C=C/C(C)(O)CC(C)C/C=C/C3C1O (configuration not stated)
T/C (dose: 3.13 mg/kg/injection, schedule: Q01DX009 (ip), vehicle: saline with Tween-80): 121 % of control
T/C (dose: 6.25 mg/kg/injection, schedule: Q01DX009 (ip), vehicle: saline with Tween-80): 124 % of control

CC(C)(C)SC(=O)C1CC1
T/C [12]: 111 % of control
T/C (dose: 200.0 mg/kg/injection, schedule: Q04DX003 (ip), vehicle: saline with Tween-80): 102 % of control

C[C@]12CCC(=O)C=C1CC[C@H]1[C@@H]3CC[C@](O)(C(=O)CF)[C@@]3(C)C[C@H](O)[C@@]12F
T/C [7]: 105 % of control
T/C [8]: 102 % of control
T/C [20]: 118 % of control
T/C (dose: 25.0 mg/kg/injection, schedule: Q01DX009 (ip), vehicle: saline): 90 % of control

ON(C=S)c1ccccc1
T/C [1]: 102 % of control
T/C [2]: 105 % of control
T/C [3]: 97 % of control

COC(=O)/C(C#N)=C/c1cccnc1
T/C [13]: 101 % of control
T/C [14]: 101 % of control
T/C [15]: 107 % of control

CCCCCNC(=O)C(O)C(O)C(=O)NCCCCC (configuration not stated)
T/C [1]: 104 % of control
T/C [2]: 101 % of control
T/C [3]: 90 % of control

CSc1nccn[n+]1C
T/C (dose: 100.0 mg/kg/injection, schedule: Q01DX001 (ip), vehicle: saline): 112 % of control
T/C (dose: 200.0 mg/kg/injection, schedule: Q01DX001 (ip), vehicle: saline): 111 % of control

Reference: PubChem BioAssay AID330 (DTP/NCI, 2004)
